# According to ChEMBL document CHEMBL1201862, “PubChem BioAssay data set” (2004):
#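 These data come from cells grown in 96-well plates and exposed to compound for 48 hours at five concentrations. Abbreviation: GI50, concentration required for 50% inhibition of growth.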 The source made the active and inactive calls. Rule as the data show it: active = GI50 up to about 1.1 µM and inactive = higher.
# Tests used:
# Assay in all cases: NCI-60 cell line screen, 48 h
# [1] = system: CCRF-CEM
# [2] = system: SK-MEL-5
# [3] = system: LOX IMVI
# [4] = system: M14
# [5] = system: IGROV-1
# [6] = system: NCI-H23
# [7] = system: COLO 205
# [8] = system: HOP-18
# [9] = system: HT-29
# [10] = system: SK-MEL-2
# [11] = system: HOP-92
# [12] = system: M19-MEL
# [13] = system: SK-OV-3
# [14] = system: TK-10
# [15] = system: HCC 2998
# [16] = system: LXFL 529
# [17] = system: OVCAR-3
# [18] = system: UACC-62
# [19] = system: SR
# [20] = system: RXF 393
# [21] = system: SN12C
# [22] = system: KM-20L2
# [23] = system: ACHN
# [24] = system: DMS-114
# [25] = system: SF-539
# [26] = system: SNB-19
# [27] = system: HCT-116
# [28] = system: EKVX
# [29] = system: SF-268
# [30] = system: NCI-H460
# [31] = system: A549
# [32] = system: MOLT-4
# [33] = system: NCI-H522
# [34] = system: A498
# [35] = system: SK-MEL-28
# [36] = system: NCI-H226
# [37] = system: SF-295
# [38] = system: SW-620
# [39] = system: RPMI-8226
# [40] = system: OVCAR-5
# [41] = system: K562
# [42] = system: Malme-3M
# [43] = system: 786-0
# [44] = system: KM12
# [45] = system: DLD-1
# [46] = system: SNB-75
# [47] = system: UO-31
# [48] = system: XF498
# [49] = system: HOP-62
# [50] = system: UACC-257
# [51] = system: HCT-15
# [52] = system: U-251
# [53] = system: HL-60
# [54] = system: OVCAR-8
smiles,measurement,setting,value
Clc1ccc(C2SCc3nc4ccccc4n32)c(Cl)c1 (centres undefined),GI50,[1],12.6 µM (inactive)
same,GI50,[2],7.93 µM (inactive)
same,GI50,[3],15.3 µM (inactive)
same,GI50,[4],14.4 µM (inactive)
same,GI50,[5],15.5 µM (inactive)
same,GI50,[6],11.3 µM (inactive)
same,GI50,[7],17 µM (inactive)
same,GI50,[8],19.5 µM (inactive)
same,GI50,[9],16 µM (inactive)
same,GI50,[10],16.5 µM (inactive)
same,GI50,[11],2.83 µM (inactive)
same,GI50,[12],14.8 µM (inactive)
same,GI50,[13],25.8 µM (inactive)
same,GI50,[14],14.4 µM (inactive)
same,GI50,[15],14.6 µM (inactive)
same,GI50,[16],11.9 µM (inactive)
same,GI50,[17],14.1 µM (inactive)
same,GI50,[18],17.7 µM (inactive)
same,GI50,[19],14.7 µM (inactive)
same,GI50,[20],15.1 µM (inactive)
same,GI50,[21],14.6 µM (inactive)
same,GI50,[22],21.4 µM (inactive)
same,GI50,[23],15 µM (inactive)
same,GI50,[24],8.3 µM (inactive)
same,GI50,[25],17.5 µM (inactive)
same,GI50,[26],18 µM (inactive)
same,GI50,[27],14 µM (inactive)
same,GI50,[28],11.6 µM (inactive)
same,GI50,[29],16.5 µM (inactive)
same,GI50,[30],16.6 µM (inactive)
same,GI50,[31],14.5 µM (inactive)
same,GI50,[32],14.1 µM (inactive)
same,GI50,[33],15.7 µM (inactive)
same,GI50,[34],15 µM (inactive)
same,GI50,[35],16.6 µM (inactive)
same,GI50,[36],14.8 µM (inactive)
same,GI50,[37],8.36 µM (inactive)
same,GI50,[38],9.16 µM (inactive)
same,GI50,[39],6.92 µM (inactive)
same,GI50,[40],16.2 µM (inactive)
same,GI50,[41],11 µM (inactive)
same,GI50,[42],17.7 µM (inactive)
same,GI50,[43],17.2 µM (inactive)
same,GI50,[44],14.7 µM (inactive)
same,GI50,[45],15.7 µM (inactive)
same,GI50,[46],19.3 µM (inactive)
same,GI50,[47],12.1 µM (inactive)
same,GI50,[48],19.1 µM (inactive)
same,GI50,[49],14 µM (inactive)
same,GI50,[50],9.79 µM (inactive)
same,GI50,[51],15.6 µM
same,GI50,[52],17.9 µM (inactive)
same,GI50,[53],8.22 µM (inactive)
same,GI50,[54],16.9 µM (inactive)
